Experimental data published in patent publication US20250041437A1, “HUMANIZED MUC1 ANTIBODY AND ANTIBODY DRUG CONJUGATE” (Sun Pharma Advanced Research Company Limited, priority 2023, published 2025).
Where a SMILES comes first, the peptide text is derived from it. [ ]: non-standard residue; d: D form. The star is where a group is joined. Dolaproine = CO[C@@H]([C@@H]1CCCN1)[C@@H](C)C(=O)O; Dil = CC[C@H](C)[C@H](NC)[C@@H](CC(=O)O)OC; X1 = C[C@@H](N*)[C@@H](O)c1ccccc1; NMeV = CN[C@H](C(=O)O)C(C)C

How the values were obtained:
SKOV3 derived xenograft = conditions: mouse, in vivo
MCF7 derived xenograft = conditions: mouse, in vivo
[1] = system: COLO-357 pancreatic carcinoma cells; assay: Growth inhibition of human cancer cell lines, COLO-357; conditions: read-out: MMAE IC50; COLO-357, free MMAE
[2] = system: T47D breast carcinoma cells; assay: Growth inhibition of human cancer cell lines, T47D; type: cell-based; conditions: free MMAE
[3] = Single dose pharmacokinetics, COLO357 tumor bearing mouse, IV; type: in vivo
Experimental: The objective of this study was to evaluate serum, tumor and liver pharmacokinetics of TAB, CAB and uMMAE following 3 mg/kg single IV administration of M5LM4-ADC and pharmacokinetics of MMAE following 0.06 mg/kg single IV administration of MMAE alone in a COLO357 tumor bearing mouse model.
The blood samples were collected from the mouse at 0.083, 0.5, 1, 2, 4, 8, 24, 48, 72, 96, 168 and 336 hours post-dose (n=3 mice/time point; sparse sampling design) through retro-orbital plexuses and serum was immediately harvested. At 24, 48, 72, 96, 168 and 336 hour time-points, the tumor and liver were collected. Analysis of total antibody (TAB) and conjugated antibody (CAB) was done by a fit for purpose ELISA based method and analysis of free payload (MMAE) was done by a fit for purpose LC-MS/MS based method. Pharmacokinetic analysis was performed by the non-compartmental analysis tool of Phoenix WinNonlin® software.

[4] = system: BxPC3 pancreatic carcinoma cells; assay: Growth inhibition of human cancer cell lines, BxPC3; conditions: read-out: MMAE IC50; BxPC3, free MMAE
[5] = MMAE, MMAE 0.06 mg/kg IV, liver
[6] = MMAE, MMAE 0.06 mg/kg IV, serum
[7] = MMAE, MMAE 0.06 mg/kg IV, tumor
[8] = single IV MMAE, COLO357 tumor bearing mice

Q: For `CC[C@H](C)[C@@H]([C@@H](CC(=O)N1CCC[C@H]1[C@H](OC)[C@@H](C)C(=O)N[C@H](C)[C@@H](O)c1ccccc1)OC)N(C)C(=O)[C@@H](NC(=O)[C@@H](NC)C(C)C)C(C)C` [Free MMAE, monomethyl auristatin E, reference compound] (H-[NMeV]V[Dil][Dolaproine]-X1), which mortality (SKOV3 derived xenograft) is on record?
A: 3 of 8

Q: And the “tumor growth inhibition (TGI)” value (SKOV3 derived xenograft)?
A: 106±10%

Q: And the mortality (MCF7 derived xenograft)?
A: 3 of 8

Q: And the IC50 [1]?
A: 0.16 nM

Q: And the IC50 [2]?
A: 0.07 nM

Q: And the AUC0-336 [3, 5]?
A: 0.19 µM·h

Q: And the Cmax [3, 5]?
A: 1.5 nM

Q: And the T1/2 [3, 5]?
A: 182 h

Q: What about the AUC0-24 [3, 6] of the same molecule?
A: 0.018 µM·h

Q: What about the AUC0-336 [3, 6] of the same molecule?
A: 0.021 µM·h

Q: What about the AUCINF [3, 6] of the same molecule?
A: 0.021 µM·h

Q: What about the CL [3, 6] of the same molecule?
A: 64 mL/min/kg

Q: And the Cmax [3, 6]?
A: 8 nM

Q: What about the T1/2 [3, 6] of the same molecule?
A: 5 h

Q: What about the Tmax [3, 6] of the same molecule?
A: 4.8 min

Q: And the Vss [3, 6]?
A: 34 L/kg

Q: What about the AUC0-336 [3, 7] of the same molecule?
A: 1.391 µM·h

Q: What about the “AUC ratio (Kp)” value [3, 7] of the same molecule?
A: 66

Q: What about the Cmax [3, 7] of the same molecule?
A: 11 nM

Q: And the T1/2 [3, 7]?
A: 154 h

Q: And the “tumor exposure higher than in serum” value [3, 8]?
A: 66 fold

Q: What about the “tumor exposure higher than in the liver” value [3, 8] of the same molecule?
A: 7 fold

Q: And the IC50 [4]?
A: 0.02 nM
